Assay results: patent publication US9908890B2, “Selective inhibitors of constitutive androstane receptor” (ST. JUDE CHILDREN'S RESEARCH HOSPITAL, priority 2014, dated 2018)

Assays:
[1] = test system: HepG2, LS174T, and HEK293T cells; assay: Cell viability (CellTiter-Glo)
Experimental: Cells were treated with indicated compounds for 24 h, and viability was measured by using CellTiter-Glo® reagent. […] Cell viability was measured 4 days post treatment by using CellTiter-Glo® reagent. Viability of cells treated with DMSO (negative control) was set to 100% in all assays.

[2] = test system: FLAG-hCAR1 nuclear localization; assay: Immunofluorescence of FLAG-hCAR1 in U2OS cells; assay type: cell-based, human; details: 5 μM CINPA1, 2 h
Experimental: Briefly, CAR binding to PGC-1α coactivator peptide was determined by using the LanthaScreen® fluorescent coregulator peptide assay. Fluorescein-labeled PGC-1α peptide (125 nM) was complexed with GST-hCAR-LBD (5 nM) and Tb-anti-GST antibody (5 nM) as described in Experimental Procedures. […] Lysates were prepared, and CAR expression was analyzed by Western blot using CAR monoclonal antibody (Clone N4111, R&D Systems). β-actin was used as a loading control. […] Briefly, U2OS cells were transfected to express FLAG-hCAR1. […] Secondary antibody labeled with Alexa Fluor® 555 dye was used to visualize FLAG-tagged hCAR1 (shown in the second column) using a NikonC 1Si microscope. Nuclei were stained with DAPI (shown in the first column).
U2OS cells were transiently transfected to express FLAG-hCAR1. […] Cells were fixed by using a 4% paraformaldehyde solution (Sigma), permeabilized by using 0.5% Triton X-100 in PBS, and incubated with FLAG-antibody overnight at 4° C. Cells were washed three times with PBS following each step. Secondary antibody labeled with Alexa Fluor® 555 dye was used to visualize FLAG-tagged hCAR1 (red) using a NikonC 1Si microscope. Nuclei were stained with DAPI (blue).

[3] = test system: CAR-regulated genes in LS174T cells; assay: Quantitative real-time PCR in LS174T cells; assay type: cell-based; details: 1 μM CINPA1 or 5 μM PK11195, 24 h
Description: RNA was extracted, cDNA synthesized, and gene expression analyzed by performing real-time PCR using Taqman probes for each gene. […] LS174T cells were maintained in 10% charcoal-dextran-treated, FBS media for 4 days before the experiment. […] Briefly, human primary hepatocytes (HPH) were maintained in William's E media with supplements for 4 days before treatment. […] RNA extracted was used for cDNA synthesis and measured by performing quantitative real-time PCR assays with Taqman probes.
Briefly, LS174T were maintained in 10% charcoal-dextran treated-FBS media for 4 days prior to the experiment. […] For the data shown in both FIG. 12A and FIG. 12B, RNA extracted was used for cDNA synthesis and measured by quantitative real-time PCR with Taqman probes. MDR1 mRNA was normalized to the internal control 18S and DMSO treated samples were set to 1. *, p<0.05 when compared to DMSO samples.
Cell lines or human hepatocytes were treated with chemicals for 24-48 hours before RNA was extracted and purified by using the Maxwell 16LEV simplyRNA tissue kit (Promega). Then, cDNA was prepared from 2 μg of RNA, and diluted cDNA was used to perform quantitative RT-PCR assays by using TaqMan probes (ABI; 7500 Thermocycler) with 18S as the internal standard.

hCAR1 = target: T1, hCAR1 (Homo sapiens, UniProt Q14994); assay: CAR-mediated CYP3A4-luciferase assay (HepG2 cells transfected with hCAR1); assay type: cell-based; details: 1 μM or 5 μM CINPA1, 24 h
T1 construct: expressed in transfected cells; host or cells: HepG2 (transient transfection)
T1 sequence (Q14994 1-348 isoform Q14994-2): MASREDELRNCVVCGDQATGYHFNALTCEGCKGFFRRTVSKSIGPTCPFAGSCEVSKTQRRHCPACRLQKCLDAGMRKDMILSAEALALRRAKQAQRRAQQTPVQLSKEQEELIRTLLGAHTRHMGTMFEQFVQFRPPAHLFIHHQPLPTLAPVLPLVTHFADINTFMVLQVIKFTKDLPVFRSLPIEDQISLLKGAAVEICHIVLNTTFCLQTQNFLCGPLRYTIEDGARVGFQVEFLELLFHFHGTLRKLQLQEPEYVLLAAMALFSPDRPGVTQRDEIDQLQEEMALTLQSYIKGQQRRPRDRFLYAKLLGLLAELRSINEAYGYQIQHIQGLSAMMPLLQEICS
Experimental: Briefly, HepG2 cells were transiently transfected with plasmids expressing hCAR1, CYP3A4-luc reporter and control plasmid pTK-RL. […] Dual luciferase activity was measured 24 h after treatment using Dual-Glo® luciferase reagent. Renilla luciferase was used to normalize firefly luciferase values and % Luciferase activity was calculated by setting DMSO to 100%. p<0.001, when comparing DMSO to all treatments except 5 μM rifampicin. […] Briefly, HepG2-PXR Clone 1 cells were treated with CINPA1 in a dose-responsive format (40 μM to 2 nM, 1-to-2 dilutions for 10 concentrations) in the presence or absence of 5 μM rifampicin (Rif) for 24 h before luciferase assay using SteadyLite™. % PXR activity was calculated by setting DMSO (negative. control) treated cells to 0% and 5 μM rifampicin (positive. control) treated cells to 100%. GraphPad Prism was used to fit the data into a dose-response stimulation equation to derive IC50 values. […] Briefly, U2OS cells were transiently transfected with plasmids expressing hCAR1, CYP2B6-luc reporter and control plasmid pTK-RL. […] Dual luciferase activity was measured 24 h after treatment. Renilla luciferase was used to normalize firefly luciferase values and % Luciferase activity was calculated by setting DMSO to 100%. *, p<0.0001 comparing CITCO+CINPA1 to CITCO treated cells.

SMILES: CCOC(=O)Nc1ccc2c(c1)N(C(=O)CN(CC)CC)c1ccccc1CC2 [CINPA1]
- cytotoxicity at higher concentrations ([1]; 30 μM and 60 μM): cytotoxic to varying degrees
- general cytotoxicity ([1]; concentration range effective in inhibiting CAR and PXR, 4-day assay): does not exhibit general cytotoxicity
- nuclear localization of CAR [2]: does not alter the nuclear localization of CAR
- CYP2B6 mRNA level [3]: moderately reduced the levels of CYP2B6
- CYP3A4 mRNA level [3]: without significantly affecting CYP3A4
- MDR1 mRNA level [3]: reduced MDR1 levels
- CAR-mediated CYP3A4-luciferase activity (hCAR1): also seen in CAR-mediated CYP3A4-luciferase activity
